Earlier results, collected in patent publication US9783526B2, “Control of hypoxia-inducible gene expression with oligooxopiperazine nonpeptidic helix mimetics” (New York University, priority 2012, dated 2017).

Assays:
experimental animals = settings: in vivo
[1] = system: HIF-1α C-TAD and p300/CBP

## CN1C(=O)[C@@]23C[C@]4([C@]56C[C@@]78SS[C@@](CO)(C(=O)N7[C@H]5Nc5ccccc56)N(C)C8=O)c5ccccc5N[C@@H]4N2C(=O)[C@]1(CO)SS3 [chaetocin]
Experimental animals
  adverse effects in experimental animals: induced coagulative necrosis, anemia, and leukocytosis

## CN1C(=O)[C@]2(Cc3cn([C@]45C[C@@]67SS[C@@](CO)(C(=O)N6[C@H]4Nc4ccccc45)N(C)C7=O)c4ccccc34)SS[C@@]1(CO)C(=O)N2C [chetomin]
[1]
  inhibition of the interaction between HIF-1α C-TAD and p300/CBP: inhibit the interaction
Experimental animals
  adverse effects in experimental animals: induced coagulative necrosis, anemia, and leukocytosis
